From patent US8062671B2, “Oily skin preparation for external use” (Shiseido Co., Ltd., priority 2003, dated 2011)

biological target: urokinase (UK) (Homo sapiens, UniProt P00749); test: Measuring method of UK blocking rate (S2444 substrate, absorbance 405 nm); format: biochemical; details: ion concentration 100 ppm; Tris-HCl buffer pH7.5
Procedure: About the complex powder of this invention, zinc oxide elutes zinc ion and inactivates plasminogen activator. UK is a kind of plasminogen activator. Measuring method of UK blocking rate. […] Thereafter, 20 μL of 12% trichloroacetic acid solution is added to stop the reaction, and powder is filtered. Absorbance of the filtrate at 405 nm is measured to obtain UK activity in an assessment system and UK blocking rate of the sample is calculated.

| Compound | UK blocking rate (%) |
| --- | --- |
| [Ba+2] [Ba^2+] | 0 |
| [Ce+3] [Ce^3+] | 5 |
| [Al+3] [Al^3+] | 16 |
| [Co+2] [Co^2+] | 27 |
| [Cu+2] [Cu^2+] | 36 |
| [Li+] [Li^+] | 0 |
| [Ca+2] [Ca^2+] | 0 |
| [Ni+2] [Ni^2+] | 30 |
| [K+] [K^+] | 0 |

Further lines, results first:

| UK blocking rate (%) | Compound |
| --- | --- |
| 0 | [Na+] [Na^+] |
| 52 | [Zn+2] [Zn^2+, zinc ion] |
| 0 | [Mn+2] [Mn^2+] |
| 0 | [Mg+2] [Mg^2+] |
| 45 | [Zr+4] [Zr^4+] |
